From the supplement of paper PMC12533247

Assays:
[1] = tested on: HSV-1 K26-GFP infected 3D skin equivalent; assay: % activity on HSV-1 GFP signal (0 = infected DMSO control, -100 = uninfected control); higher = higher signal (negative = inhibition / toxicity); settings: time (h post infection): 48
Description: (§1)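 Triplicate dose-response (0.04 to 10 uM) of 11 top compounds in 3D bioprinted skin equivalents (submerged and ALI models) infected with GFP-HSV-1 K26 at MOI 0.1 and fixed at 48 hpi. GFP (virus) and tdTomato (fibroblast viability) signals are normalised to per-plate controls.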

[2] = tested on: HSV-1 K26-GFP infected primary human skin cells; assay: % change of HSV-1 GFP signal vs untreated infected cells; higher = less antiviral inhibition
Description: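 2D primary donor-derived keratinocytes (read at 20 hpi) and donor-matched dermal fibroblasts (read at 48 hpi) infected with GFP-HSV-1 K26 at MOI 1 and treated 1 h later with compound dilutions. IncuCyte GFP integrated intensity is normalised by subtracting mock-infected wells and dividing by untreated infected wells, shown as % change (-100 = full inhibition).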

[3] = tested on: HSV-1 K26-GFP infected 3D skin equivalent; assay: % change of tdTomato fibroblast signal relative to infected DMSO control; higher = higher signal (negative = inhibition / toxicity); settings: time (h post infection): 48
Description: as §1

[4] = tested on: HSV-1 K26-GFP infected primary human skin cells; assay: % change of HSV-1 GFP signal vs untreated infected cells; higher = less antiviral inhibition; settings: cell type: primary dermal fibroblasts, time (h post infection): 48
Description: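 2D primary donor-derived dermal fibroblasts infected with GFP-HSV-1 K26 at MOI 1, treated 1 h later with compound dilutions and read at 48 hpi on IncuCyte. GFP integrated intensity is normalised to mock-infected and untreated infected wells (% change; -100 = full inhibition).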

CC(C)c1cnn2c(NCc3ccccc3-n3cccn3)nc(OC3CCCNC3)nc12 (stereo unspecified) [LDC4297]
Settings | % activity on HSV-1 GFP signal [%] | % change of HSV-1 GFP signal [%] | % change of tdTomato fibroblast signal [%]
[1], 0.041152 µM, model: ALI | -23.3 | – | –
[1], 0.041152 µM, model: submerged | -10.7 | – | –
[1], 0.123457 µM, model: ALI | -67.2 | – | –
[1], 0.123457 µM, model: submerged | -16.1 | – | –
[1], 0.37037 µM, model: ALI | -88.4 | – | –
[1], 0.37037 µM, model: submerged | -44.7 | – | –
[1], 1.111111 µM, model: ALI | -99.9 | – | –
[1], 1.111111 µM, model: submerged | -54.4 | – | –
[1], 3.33333 µM, model: ALI | -105 | – | –
[1], 3.33333 µM, model: submerged | -74.5 | – | –
[1], 10 µM, model: ALI | -99.9 | – | –
[1], 10 µM, model: submerged | -94.8 | – | –
[3], 0.041152 µM, model: ALI | – | – | -1.16
[3], 0.041152 µM, model: submerged | – | – | 7.31
[3], 0.123457 µM, model: ALI | – | – | -6.21
[3], 0.123457 µM, model: submerged | – | – | -0.0281
[3], 0.37037 µM, model: ALI | – | – | -7.32
[3], 0.37037 µM, model: submerged | – | – | -5.4
[3], 1.111111 µM, model: ALI | – | – | -9.38
[3], 1.111111 µM, model: submerged | – | – | 8.7
[3], 3.33333 µM, model: ALI | – | – | -3.18
[3], 3.33333 µM, model: submerged | – | – | 7.79
[3], 10 µM, model: ALI | – | – | 1.92
[3], 10 µM, model: submerged | – | – | -14.8
[4], 0.003 µM, donor: 3 | – | 20.9 | –
[4], 0.0091 µM, donor: 3 | – | 21.8 | –
[4], 0.0091 µM, donor: 4 | – | 2.39 | –
[4], 0.0274 µM, donor: 3 | – | 21.6 | –
[4], 0.0274 µM, donor: 4 | – | 1.27 | –
[4], 0.0823 µM, donor: 3 | – | 14.2 | –
[4], 0.0823 µM, donor: 4 | – | -5.21 | –
[4], 0.2469 µM, donor: 3 | – | -5.39 | –
[4], 0.2469 µM, donor: 4 | – | -24 | –
[4], 0.7407 µM, donor: 3 | – | -27.1 | –
[4], 0.7407 µM, donor: 4 | – | -34.7 | –
[4], 2.2222 µM, donor: 3 | – | -57.2 | –
[4], 2.2222 µM, donor: 4 | – | -53.3 | –
[4], 6.6667 µM, donor: 3 | – | -98.3 | –
[4], 6.6667 µM, donor: 4 | – | -92.4 | –
[4], 20 µM, donor: 3 | – | -100.3 | –
[4], 20 µM, donor: 4 | – | -99.916 | –
[4], 60 µM, donor: 3 | – | -100.3 | –
[4], 60 µM, donor: 4 | – | -99.83 | –

% change of HSV-1 GFP signal [%], [2]
Settings | 0.003 µM | 0.0091 µM | 0.0274 µM | 0.0823 µM | 0.2469 µM | 0.7407 µM | 2.2222 µM | 6.6667 µM | 20 µM | 60 µM
cell type: primary dermal fibroblasts, donor: 5, time (h post infection): 48 | -4.88 | -5.58 | -6.29 | -17.5 | -44.9 | -60.2 | -78.8 | -97.65 | -99.964 | -99.913
cell type: primary keratinocytes, donor: 3, time (h post infection): 20 | -0.466 | 9.74 | -1.73 | 2.24 | -13.6 | -24.8 | -42.6 | -99.02 | -99.87 | -99.984
cell type: primary keratinocytes, donor: 4, time (h post infection): 20 | -19.1 | -22.2 | -23.4 | -17.1 | -35.8 | -61 | -75.3 | -99.7 | -99.973 | -100.04
cell type: primary keratinocytes, donor: 5, time (h post infection): 20 | – | 7.64 | 1.09 | 0.186 | -10 | -17.4 | -37.8 | -99.64 | -99.946 | -99.969

Cc1nc(N(C)C(=O)Cc2ccc(-c3ccccn3)cc2)sc1S(N)(=O)=O [Pritelivir]
Settings | % activity on HSV-1 GFP signal [%] | % change of HSV-1 GFP signal [%] | % change of tdTomato fibroblast signal [%]
[1], 0.041152 µM, model: ALI | 4.25 | – | –
[1], 0.041152 µM, model: submerged | -6.28 | – | –
[1], 0.123457 µM, model: ALI | -38.2 | – | –
[1], 0.123457 µM, model: submerged | -11 | – | –
[1], 0.37037 µM, model: ALI | -92.9 | – | –
[1], 0.37037 µM, model: submerged | -37.4 | – | –
[1], 1.111111 µM, model: ALI | -106 | – | –
[1], 1.111111 µM, model: submerged | -83.7 | – | –
[1], 3.33333 µM, model: ALI | -106 | – | –
[1], 3.33333 µM, model: submerged | -96.7 | – | –
[1], 10 µM, model: ALI | -102 | – | –
[1], 10 µM, model: submerged | -94.6 | – | –
[3], 0.041152 µM, model: ALI | – | – | 16.3
[3], 0.041152 µM, model: submerged | – | – | 11.8
[3], 0.123457 µM, model: ALI | – | – | 6.72
[3], 0.123457 µM, model: submerged | – | – | -3.78
[3], 0.37037 µM, model: ALI | – | – | 0.531
[3], 0.37037 µM, model: submerged | – | – | 0.74
[3], 1.111111 µM, model: ALI | – | – | -3.11
[3], 1.111111 µM, model: submerged | – | – | -3.09
[3], 3.33333 µM, model: ALI | – | – | -3.08
[3], 3.33333 µM, model: submerged | – | – | -6.25
[3], 10 µM, model: ALI | – | – | 12
[3], 10 µM, model: submerged | – | – | -0.666
[4], 0.001 µM, donor: 3 | – | 4.72 | –
[4], 0.001 µM, donor: 4 | – | 1.2 | –
[4], 0.003 µM, donor: 3 | – | 1.04 | –
[4], 0.003 µM, donor: 4 | – | -0.451 | –
[4], 0.0091 µM, donor: 3 | – | -2.12 | –
[4], 0.0091 µM, donor: 4 | – | -4.4 | –
[4], 0.0274 µM, donor: 3 | – | -9.3 | –
[4], 0.0274 µM, donor: 4 | – | -16.7 | –
[4], 0.0823 µM, donor: 3 | – | -30 | –
[4], 0.0823 µM, donor: 4 | – | -36.8 | –
[4], 0.2469 µM, donor: 3 | – | -61 | –
[4], 0.2469 µM, donor: 4 | – | -74.4 | –
[4], 0.7407 µM, donor: 3 | – | -81.3 | –
[4], 0.7407 µM, donor: 4 | – | -91.2 | –
[4], 2.2222 µM, donor: 3 | – | -90.9 | –
[4], 2.2222 µM, donor: 4 | – | -99.47 | –
[4], 6.6667 µM, donor: 3 | – | -93.7 | –
[4], 6.6667 µM, donor: 4 | – | -99.82 | –
[4], 20 µM, donor: 3 | – | -98.48 | –
[4], 20 µM, donor: 4 | – | -99.71 | –

% change of HSV-1 GFP signal [%], [2]
Settings | 0.001 µM | 0.003 µM | 0.0091 µM | 0.0274 µM | 0.0823 µM | 0.2469 µM | 0.7407 µM | 2.2222 µM | 6.6667 µM | 20 µM
cell type: primary dermal fibroblasts, donor: 5, time (h post infection): 48 | -6.88 | -8.21 | -6.16 | -14.2 | -21.8 | -61.5 | -88.3 | -99.754 | -99.905 | -99.853
cell type: primary keratinocytes, donor: 3, time (h post infection): 20 | 6.78 | 7.17 | 4.27 | 0.771 | -17.7 | -65.2 | -88.8 | -97.9 | -98.88 | -98.8
cell type: primary keratinocytes, donor: 4, time (h post infection): 20 | 1.71 | 10.5 | 3.75 | -0.535 | -26 | -77.35 | -95.7 | -99.05 | -99.54 | -99.35
cell type: primary keratinocytes, donor: 5, time (h post infection): 20 | 3.7 | 2.94 | 1.99 | -6.85 | -31.7 | -72.3 | -94.1 | -99.54 | -99.63 | -99.66
